Results reported in the NIST ThermoML archive (doi:10.1021/acs.jced.7b00445).
Numbers after ± are expanded uncertainties.

Assay: refractive index (Na D-line) (dimensionless)
Conditions: 298.15 K; 101.33 kPa; Liquid; Standard Abbe refractometry

refractive index | Structure (SMILES)
1.3872 ± 0.0004 | CCC(C)OC(C)=O (configuration not stated) [1-methylpropyl ethanoate]
1.3596 ± 0.0004 | CCO [ethanol]
1.3842 ± 0.0004 | CCCO [propan-1-ol]
1.3757 ± 0.0004 | CC(C)O [propan-2-ol]

Assay: Boiling temperature at pressure P
Conditions: 101.3 kPa; Liquid; Ebulliometric method (Recirculating still)

Boiling temperature at pressure P [°C] | Structure (SMILES)
111.97 ± 0.16 | CCC(C)OC(C)=O (configuration not stated) [1-methylpropyl ethanoate]
78.27 ± 0.16 | CCO [ethanol]
97.17 ± 0.16 | CCCO [propan-1-ol]
82.36 ± 0.16 | CC(C)O [propan-2-ol]

Assay: not given
Conditions: 298.15 K; 101.33 kPa; Liquid; Pycnometric method

mass density [kg/m3] | Structure (SMILES)
867 ± 2 | CCC(C)OC(C)=O (configuration not stated) [1-methylpropyl ethanoate]
786 ± 2 | CCO [ethanol]
802 ± 2 | CCCO [propan-1-ol]
782 ± 2 | CC(C)O [propan-2-ol]
